Active and inactive are the calls of the source.
Assays:
[1] = target: Ras and Rab interactor 1/Tyrosine-protein kinase ABL1 (Homo sapiens, UniProt P00519+Q13671); assay type: functional;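 note: biochemical TR-FRET dose-response test measuring inhibition of binding between Rin1 and Abl proteins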
[2] = bead-based luminescence quenchers, dual-tagged ARNT – biochemical, AlphaScreen, cherry-pick, artefact control for ARNT-TACC3 interaction inhibitor project, dose response (AID 651705); assay type: functional;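 note: AlphaScreen bead proximity signal that flags compounds interfering with the detection technology; potency reflects signal decrease which marks the compound as an assay artifact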
[3] = target: Potassium voltage-gated channel subfamily KQT member 2 (Rattus norvegicus, UniProt O88943); assay: blockers of KCNQ2 channel current – cell-based, automated electrophysiology, set II, rat KCNQ2, dose response (AID 588637); assay type: functional
[4] = inhibition of ARNT PAS-B/TACC3 complex formation – biochemical, AlphaScreen, cherry-picked samples, confirmation (AID 651703); assay type: functional, Homo sapiens;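 note: His-tagged ARNT PAS-B domain paired with GST-TACC3 E629A dimer coactivator fragment; potency of inhibitors that break up the complex and lower AlphaScreen signal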
Interleukin-8 [5] = target: T1, Interleukin-8 (Homo sapiens, UniProt P10145); assay: Dose Response confirmation of uHTS small molecule hits for cystic fibrosis induced NFkb Inhibitors in a PAF-induced IL8 counterscreen.; assay type: functional; settings: read-out: IC50_Mean
T1 sequence (P10145 whole entry): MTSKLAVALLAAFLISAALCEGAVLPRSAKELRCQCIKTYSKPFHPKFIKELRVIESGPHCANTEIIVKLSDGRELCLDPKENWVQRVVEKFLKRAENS

Interleukin-8 [6] = target: T1, Interleukin-8; assay: Dose Response confirmation of uHTS small molecule hits for cystic fibrosis induced NFkb Inhibitors in a TNFa-induced IL8 counterscreen.; assay type: functional; settings: read-out: IC50_Mean
[7] = target: T2, Replicative DNA helicase DnaB (Mycobacterium tuberculosis, UniProt P9WMR3); assay: DnaB intein splicing inhibitors, dose response, biochemical, cell-free fluorescence (AID 449749); assay type: functional
T2 sequence (P9WMR3 whole entry): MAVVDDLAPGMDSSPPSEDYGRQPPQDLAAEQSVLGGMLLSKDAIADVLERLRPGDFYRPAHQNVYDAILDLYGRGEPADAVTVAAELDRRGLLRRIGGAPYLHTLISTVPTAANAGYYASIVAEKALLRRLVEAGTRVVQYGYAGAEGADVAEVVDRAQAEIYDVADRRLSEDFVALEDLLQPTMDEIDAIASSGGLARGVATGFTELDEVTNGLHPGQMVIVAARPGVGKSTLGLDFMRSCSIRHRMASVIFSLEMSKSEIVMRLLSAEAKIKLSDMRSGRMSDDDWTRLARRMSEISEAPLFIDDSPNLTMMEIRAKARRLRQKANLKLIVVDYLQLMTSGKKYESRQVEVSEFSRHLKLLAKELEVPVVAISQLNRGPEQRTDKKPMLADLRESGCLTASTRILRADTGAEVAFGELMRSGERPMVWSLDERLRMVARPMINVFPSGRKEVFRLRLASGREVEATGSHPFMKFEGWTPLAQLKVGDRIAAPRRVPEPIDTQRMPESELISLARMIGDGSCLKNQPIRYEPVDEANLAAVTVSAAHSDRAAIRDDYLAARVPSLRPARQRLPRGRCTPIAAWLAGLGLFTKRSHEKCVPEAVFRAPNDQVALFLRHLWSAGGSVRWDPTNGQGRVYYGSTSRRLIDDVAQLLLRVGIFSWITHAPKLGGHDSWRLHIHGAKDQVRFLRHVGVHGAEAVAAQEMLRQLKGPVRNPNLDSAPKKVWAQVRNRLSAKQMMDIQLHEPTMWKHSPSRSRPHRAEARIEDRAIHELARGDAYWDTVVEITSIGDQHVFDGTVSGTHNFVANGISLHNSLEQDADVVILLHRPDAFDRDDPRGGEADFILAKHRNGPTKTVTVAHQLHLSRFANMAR

Fatty acid synthase [8] = target: T3, Fatty acid synthase (Homo sapiens, UniProt P49327); assay: inhibition of human FAS-TE enzyme activity – biochemical, endpoint fluorescence intensity, uHTS hits, dose response (AID 624327); assay type: functional;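 note: fluorescence from hydrolysis of an O-methyl fluorescein acyl ester substrate by the enzyme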
Beta Lactamase = Beta Lactamase (Pseudomonas aeruginosa, UniProt Q932Y6); assay: BLA reporter interference, concentration series – BLA reporter cells, FRET fluorescence, artefact control for TLR9-MyD88 binding inhibitor project, dose response (AID 588341); assay type: cell-based;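 note: cell based assay in CHO-K1 cells stably expressing beta-lactamase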
[9] = NIH3T3 cell viability loss – ATP luminescence, mouse fibroblasts, counter-screen, dose response (AID 2010); assay type: functional, cell-based;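 note: cells exposed to compound for about 90 hours before reading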
CHO = CHO cell viability loss, potency – luminescence, cytotoxicity control for TLR9-MyD88 binding inhibitor project, dose response (AID 588339); assay type: functional, cell-based, hamster; settings: Cricetulus griseus;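 note: CHO cells stably coexpressing TLR9 and MyD88 fusions from primary screen; compound exposure lasted 48 hours before viability readout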
[10] = Luminescence Cell-Based Dose Response HTS to Identify Inhibitors of 5'UTR Stem-Loop Driven Prion Protein mRNA Translation in H4 Neuroglioblastoma Cells. [Related pubchem assays: 1827 (Project Summary), 1813 (Primary HTS)]; assay type: functional
[11] = luciferase reporter signal suppression in cells – H4 neuroglioma cells, luminescence, dose response (AID 1990); assay type: functional, cell-based
[12] = alpha-synuclein stem-loop luciferase translation blockers – H4 neuroglioma cells, luminescence, confirmation (AID 1988); assay type: functional, cell-based
Protein RecA = target: T4, Protein RecA (Mycobacterium tuberculosis, UniProt P9WHJ3); assay: Fluorescence Cell-Free Homogeneous Dose Retest to Identify Inhibitors of RecA-Intein Splicing Activity. [Related pubchem assays (depositor defined):AID2097, AID2223, AID489010, AID492950]; assay type: functional
T4 sequence (P9WHJ3 whole entry): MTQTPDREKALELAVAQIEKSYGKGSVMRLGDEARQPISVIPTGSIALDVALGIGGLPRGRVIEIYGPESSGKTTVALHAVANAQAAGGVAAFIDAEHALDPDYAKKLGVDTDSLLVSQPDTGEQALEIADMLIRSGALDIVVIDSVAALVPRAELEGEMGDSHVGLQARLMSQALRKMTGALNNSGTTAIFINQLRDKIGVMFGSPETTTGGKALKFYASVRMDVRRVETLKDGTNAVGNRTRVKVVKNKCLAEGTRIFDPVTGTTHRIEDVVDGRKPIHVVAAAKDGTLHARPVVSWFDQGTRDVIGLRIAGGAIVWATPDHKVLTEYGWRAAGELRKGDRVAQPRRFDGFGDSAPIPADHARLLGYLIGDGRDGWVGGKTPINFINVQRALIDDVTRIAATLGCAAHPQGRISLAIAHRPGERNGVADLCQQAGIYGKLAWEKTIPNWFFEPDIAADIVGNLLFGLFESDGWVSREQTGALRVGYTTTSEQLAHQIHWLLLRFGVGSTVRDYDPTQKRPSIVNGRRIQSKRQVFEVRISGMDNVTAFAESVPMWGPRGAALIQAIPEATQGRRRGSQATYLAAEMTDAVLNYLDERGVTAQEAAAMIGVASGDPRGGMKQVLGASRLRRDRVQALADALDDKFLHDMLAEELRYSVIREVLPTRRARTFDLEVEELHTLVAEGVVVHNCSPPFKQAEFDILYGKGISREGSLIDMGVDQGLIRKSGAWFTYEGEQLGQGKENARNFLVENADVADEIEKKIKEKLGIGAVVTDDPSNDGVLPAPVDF

[13] = Trypanosoma cruzi growth suppression in host cells – NIH3T3 host cells, beta-gal luminescence, confirmation (AID 2044); assay type: functional, cell-based;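 note: intracellular parasites grown in NIH/3T3 mouse fibroblasts as host cells; luminescent beta-galactosidase reporter signal from transgenic T. cruzi replicating inside host cells; inhibitors lower the luminescence signal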
Fatty acid synthase [14] = target: T3, Fatty acid synthase; assay: inhibition of human FAS-TE enzyme activity – biochemical, kinetic fluorescence intensity, dose response (AID 624326); assay type: functional;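 note: rate of fluorescence rise from hydrolysis of a fluorogenic O-methyl fluorescein ester substrate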
HeLa = assay: Cytotoxicity counterscreen assay for transcriptional activators of heat shock protein 70 (Hsp70). [Related pubchem assays: 1203, 1252 ]; assay type: functional; settings: Homo sapiens
[15] = target: Insulin-like growth factor 1 receptor (Homo sapiens, UniProt P08069); assay: Navigating the Kinome. Panel member name: IGF1R; assay type: functional
[16] = target: Dual specificity mitogen-activated protein kinase kinase 2 (Homo sapiens, UniProt P36507); assay: Navigating the Kinome. Panel member name: MAP2K2; assay type: functional
[17] = target: Dual specificity protein kinase CLK4 (Homo sapiens, UniProt Q9HAZ1); assay type: functional
[18] = target: Ribosomal protein S6 kinase alpha-3 (Homo sapiens, UniProt P51812); assay type: functional;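 note: measured within a kinome-wide profiling panel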
[19] = target: T5, cAMP-dependent protein kinase catalytic subunit PRKX (Homo sapiens, UniProt P51817); assay type: functional
T5 sequence (P51817 whole entry): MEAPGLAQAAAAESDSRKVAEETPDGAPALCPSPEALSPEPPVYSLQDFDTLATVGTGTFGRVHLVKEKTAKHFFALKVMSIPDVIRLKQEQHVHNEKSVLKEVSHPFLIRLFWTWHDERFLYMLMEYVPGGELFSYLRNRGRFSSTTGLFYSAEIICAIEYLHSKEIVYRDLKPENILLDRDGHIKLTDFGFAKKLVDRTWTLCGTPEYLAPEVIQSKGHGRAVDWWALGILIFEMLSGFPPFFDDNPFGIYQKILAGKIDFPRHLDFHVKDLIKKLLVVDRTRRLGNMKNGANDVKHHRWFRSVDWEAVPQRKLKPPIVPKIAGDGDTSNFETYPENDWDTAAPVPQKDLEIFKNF

[20] = target: Mitogen-activated protein kinase 9 (Homo sapiens, UniProt P45984); assay type: functional;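 note: value from a kinome panel profiling assay, MAPK9 panel entry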
[21] = target: Protein kinase C theta type (Homo sapiens, UniProt Q04759); assay: Navigating the Kinome. Panel member name: PRKCQ; assay type: functional
[22] = target: Leukocyte tyrosine kinase receptor (Homo sapiens, UniProt P29376); assay: Navigating the Kinome. Panel member name: LTK; assay type: functional
[23] = target: Fibroblast growth factor receptor 1 (Homo sapiens, UniProt P11362); assay type: functional
Activated CDC42 kinase 1 = Activated CDC42 kinase 1 (Homo sapiens, UniProt Q07912); assay: Navigating the Kinome. Panel member name: ACK1; assay type: functional
[24] = target: High affinity nerve growth factor receptor (Homo sapiens, UniProt P04629); assay type: functional;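 note: NTRK1 tested as one member of a kinome-wide profiling panel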
[25] = target: Platelet-activating factor acetylhydrolase (Mus musculus, UniProt Q60963); assay: Late stage assay provider results from the probe development effort to identify inhibitors of pPAFAH: fluorescence-based dose-response biochemical gel-based competitive Activity-Based Protein Profiling (ABPP) assay for SAR compounds.; assay type: functional
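Throughout, for CC50: cells exposed to compound for 16 hours before readout.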

T3 sequence (P49327 whole entry): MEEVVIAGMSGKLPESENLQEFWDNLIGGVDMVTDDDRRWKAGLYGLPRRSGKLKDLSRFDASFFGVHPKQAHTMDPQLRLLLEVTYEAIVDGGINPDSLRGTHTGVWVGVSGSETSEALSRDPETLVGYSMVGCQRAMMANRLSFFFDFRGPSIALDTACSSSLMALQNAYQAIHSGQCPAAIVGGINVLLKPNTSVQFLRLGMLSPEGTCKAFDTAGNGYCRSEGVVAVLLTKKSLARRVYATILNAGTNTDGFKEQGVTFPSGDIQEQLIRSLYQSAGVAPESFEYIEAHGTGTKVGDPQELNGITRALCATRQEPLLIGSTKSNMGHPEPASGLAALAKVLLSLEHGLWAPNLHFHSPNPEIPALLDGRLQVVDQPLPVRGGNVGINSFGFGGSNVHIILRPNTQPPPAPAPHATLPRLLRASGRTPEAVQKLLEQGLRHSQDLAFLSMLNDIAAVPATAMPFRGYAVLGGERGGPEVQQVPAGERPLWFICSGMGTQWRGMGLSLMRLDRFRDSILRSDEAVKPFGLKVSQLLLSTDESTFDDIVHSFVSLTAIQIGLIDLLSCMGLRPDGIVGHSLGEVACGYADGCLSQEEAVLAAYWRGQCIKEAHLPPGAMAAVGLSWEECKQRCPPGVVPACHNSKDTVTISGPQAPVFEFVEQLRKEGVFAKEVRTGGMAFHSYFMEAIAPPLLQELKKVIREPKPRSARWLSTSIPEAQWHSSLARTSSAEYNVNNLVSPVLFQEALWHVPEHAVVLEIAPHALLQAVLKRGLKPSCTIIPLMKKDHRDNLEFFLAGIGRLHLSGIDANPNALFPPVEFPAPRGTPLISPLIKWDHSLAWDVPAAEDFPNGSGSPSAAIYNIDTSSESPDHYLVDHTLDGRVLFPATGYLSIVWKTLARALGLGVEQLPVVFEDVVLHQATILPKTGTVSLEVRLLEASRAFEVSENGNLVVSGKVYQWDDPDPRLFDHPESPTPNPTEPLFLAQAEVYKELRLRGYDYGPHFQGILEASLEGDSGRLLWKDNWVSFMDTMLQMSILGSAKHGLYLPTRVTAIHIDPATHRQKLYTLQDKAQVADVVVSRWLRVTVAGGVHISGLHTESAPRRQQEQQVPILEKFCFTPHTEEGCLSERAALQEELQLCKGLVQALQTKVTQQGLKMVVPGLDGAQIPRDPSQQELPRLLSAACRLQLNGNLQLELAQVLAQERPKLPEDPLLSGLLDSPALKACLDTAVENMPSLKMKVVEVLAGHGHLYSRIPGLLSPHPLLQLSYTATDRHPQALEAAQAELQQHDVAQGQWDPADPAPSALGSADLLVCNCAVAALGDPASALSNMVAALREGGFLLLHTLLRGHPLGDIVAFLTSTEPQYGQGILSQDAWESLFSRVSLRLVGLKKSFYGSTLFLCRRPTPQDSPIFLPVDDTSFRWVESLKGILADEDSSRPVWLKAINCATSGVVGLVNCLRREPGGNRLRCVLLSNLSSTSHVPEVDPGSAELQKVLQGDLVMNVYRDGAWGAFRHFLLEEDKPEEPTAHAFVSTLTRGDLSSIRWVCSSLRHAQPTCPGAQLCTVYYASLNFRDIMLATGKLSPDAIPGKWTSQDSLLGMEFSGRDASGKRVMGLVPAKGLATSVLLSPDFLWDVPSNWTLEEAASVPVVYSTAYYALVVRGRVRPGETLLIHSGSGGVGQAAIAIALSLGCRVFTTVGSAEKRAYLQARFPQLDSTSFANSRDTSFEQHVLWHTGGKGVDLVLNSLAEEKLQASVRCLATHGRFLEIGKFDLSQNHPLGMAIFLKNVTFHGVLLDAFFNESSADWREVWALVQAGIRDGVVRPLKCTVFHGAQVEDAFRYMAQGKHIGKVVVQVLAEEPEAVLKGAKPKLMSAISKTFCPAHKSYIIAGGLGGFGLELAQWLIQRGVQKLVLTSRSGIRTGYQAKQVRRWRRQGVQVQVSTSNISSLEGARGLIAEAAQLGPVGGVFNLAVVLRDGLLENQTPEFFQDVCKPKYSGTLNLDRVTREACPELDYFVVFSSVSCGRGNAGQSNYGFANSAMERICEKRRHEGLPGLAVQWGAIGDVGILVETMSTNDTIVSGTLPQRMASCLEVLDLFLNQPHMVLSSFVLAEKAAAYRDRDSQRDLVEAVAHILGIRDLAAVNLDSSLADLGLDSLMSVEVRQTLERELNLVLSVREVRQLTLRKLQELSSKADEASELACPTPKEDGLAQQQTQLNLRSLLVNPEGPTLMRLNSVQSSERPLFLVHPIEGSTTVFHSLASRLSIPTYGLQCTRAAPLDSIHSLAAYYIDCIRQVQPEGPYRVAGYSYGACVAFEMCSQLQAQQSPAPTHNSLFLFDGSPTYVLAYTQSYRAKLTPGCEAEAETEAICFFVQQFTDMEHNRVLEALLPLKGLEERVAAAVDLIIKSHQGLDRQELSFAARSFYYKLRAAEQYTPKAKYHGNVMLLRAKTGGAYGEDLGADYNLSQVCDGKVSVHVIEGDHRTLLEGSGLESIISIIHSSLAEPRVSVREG
Activated CDC42 kinase 1, sequence (Q07912 whole entry): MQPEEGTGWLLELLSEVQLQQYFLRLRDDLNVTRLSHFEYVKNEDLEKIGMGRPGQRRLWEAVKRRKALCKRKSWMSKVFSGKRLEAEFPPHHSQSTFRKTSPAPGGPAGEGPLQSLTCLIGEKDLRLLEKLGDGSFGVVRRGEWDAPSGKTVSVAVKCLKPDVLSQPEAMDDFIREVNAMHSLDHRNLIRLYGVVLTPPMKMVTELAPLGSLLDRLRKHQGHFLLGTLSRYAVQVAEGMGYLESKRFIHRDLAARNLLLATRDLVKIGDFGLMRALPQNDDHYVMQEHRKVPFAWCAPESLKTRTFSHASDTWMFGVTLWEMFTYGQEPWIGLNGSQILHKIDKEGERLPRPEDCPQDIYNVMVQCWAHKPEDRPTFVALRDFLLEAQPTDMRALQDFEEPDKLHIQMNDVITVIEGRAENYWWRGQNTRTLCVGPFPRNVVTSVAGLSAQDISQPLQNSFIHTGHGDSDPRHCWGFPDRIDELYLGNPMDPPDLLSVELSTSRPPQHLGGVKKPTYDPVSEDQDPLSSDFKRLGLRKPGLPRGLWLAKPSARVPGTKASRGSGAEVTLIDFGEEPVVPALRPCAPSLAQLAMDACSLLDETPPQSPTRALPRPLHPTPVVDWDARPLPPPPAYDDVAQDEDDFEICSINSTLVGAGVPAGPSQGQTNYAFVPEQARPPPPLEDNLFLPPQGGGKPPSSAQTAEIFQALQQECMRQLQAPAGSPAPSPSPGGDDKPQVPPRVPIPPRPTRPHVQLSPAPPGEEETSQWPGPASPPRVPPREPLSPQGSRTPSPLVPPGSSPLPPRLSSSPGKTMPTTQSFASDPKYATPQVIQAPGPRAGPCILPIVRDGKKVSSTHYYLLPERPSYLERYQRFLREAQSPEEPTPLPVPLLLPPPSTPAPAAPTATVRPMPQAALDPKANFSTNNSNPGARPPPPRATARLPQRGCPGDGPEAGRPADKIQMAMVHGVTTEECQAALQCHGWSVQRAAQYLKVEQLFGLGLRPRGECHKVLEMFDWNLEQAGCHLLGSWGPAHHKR
Beta Lactamase, sequence (Q932Y6 whole entry): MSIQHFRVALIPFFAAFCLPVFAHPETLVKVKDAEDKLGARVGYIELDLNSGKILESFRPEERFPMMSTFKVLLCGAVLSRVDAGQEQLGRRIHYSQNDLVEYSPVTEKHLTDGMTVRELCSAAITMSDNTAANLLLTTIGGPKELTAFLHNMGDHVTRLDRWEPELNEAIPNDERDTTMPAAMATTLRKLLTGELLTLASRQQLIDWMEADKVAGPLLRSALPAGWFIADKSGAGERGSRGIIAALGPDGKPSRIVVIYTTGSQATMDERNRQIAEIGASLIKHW
Platelet-activating factor acetylhydrolase, sequence (Q60963 whole entry): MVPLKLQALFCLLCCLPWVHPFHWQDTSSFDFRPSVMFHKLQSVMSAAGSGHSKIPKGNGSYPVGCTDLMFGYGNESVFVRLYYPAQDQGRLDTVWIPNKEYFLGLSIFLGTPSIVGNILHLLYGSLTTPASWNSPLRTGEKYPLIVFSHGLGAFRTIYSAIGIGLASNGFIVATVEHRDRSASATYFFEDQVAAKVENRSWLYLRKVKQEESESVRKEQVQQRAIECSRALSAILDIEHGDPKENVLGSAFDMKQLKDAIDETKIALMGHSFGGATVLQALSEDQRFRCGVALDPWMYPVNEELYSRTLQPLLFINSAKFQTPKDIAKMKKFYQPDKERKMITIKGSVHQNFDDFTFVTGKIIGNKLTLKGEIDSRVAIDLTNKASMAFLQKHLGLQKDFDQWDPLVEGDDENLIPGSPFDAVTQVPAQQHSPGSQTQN
Dual specificity protein kinase CLK4, sequence (Q9HAZ1 whole entry): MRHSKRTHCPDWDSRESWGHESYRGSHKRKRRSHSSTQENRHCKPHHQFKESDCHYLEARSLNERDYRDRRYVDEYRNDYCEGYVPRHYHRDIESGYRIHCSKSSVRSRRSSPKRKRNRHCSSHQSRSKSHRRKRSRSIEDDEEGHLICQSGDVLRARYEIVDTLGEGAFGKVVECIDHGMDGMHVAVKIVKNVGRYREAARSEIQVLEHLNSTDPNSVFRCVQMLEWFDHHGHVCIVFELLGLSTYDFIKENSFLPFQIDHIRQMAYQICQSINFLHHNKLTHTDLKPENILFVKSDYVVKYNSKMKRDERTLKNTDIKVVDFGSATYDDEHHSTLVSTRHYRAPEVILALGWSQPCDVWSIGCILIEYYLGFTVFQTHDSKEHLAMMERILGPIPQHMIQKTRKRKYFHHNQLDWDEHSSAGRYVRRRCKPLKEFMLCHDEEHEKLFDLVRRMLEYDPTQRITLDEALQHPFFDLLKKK

## CC1(c2nnc(-c3ccncc3)o2)CC(c2ccc(F)cc2)=NO1 (stereo not given)
[1]
  IC50: 10.8 µM (inactive)

## O=C(NCCCn1ccnc1)Nc1cccc(Cl)c1
[2]
  AC50: 116 µM (active)

## Cc1ccc(-c2cc(C(=O)N3CC(C)OC(C)C3)c3ccccc3n2)o1 (stereo not given)
[3]
  IC50: 0.61 µM (active)

## O=C(COC(=O)c1ccc([N+](=O)[O-])o1)Nc1ccc(F)cc1
[4]
  AC50: 109 µM (active)

## Nc1nccc(SCc2ccc(Cl)cc2Cl)n1
Interleukin-8 [5]
  IC50: 6.67 µM (active)
Interleukin-8 [6]
  IC50: > 79 µM (inactive)

## O=Cc1s/c(=N\S(=O)(=O)c2ccccc2)n(CCCCl)c1Cl
[7]
  AC50: 4.19 µM (active)
Fatty acid synthase [8]
  IC50: 6.11 µM (active)
Beta Lactamase
  IC50: 19.5 µM (inactive)
[9]
  EC50: 2.82 µM (active)
CHO
  IC50: 1.03 µM (active)
[10]
  EC50: > 120 µM (not active)
[11]
  EC50: > 60 µM (not active)
[12]
  EC50: 9.57 µM (active)
Protein RecA
  EC50: 34.9 µM (active)
[13]
  EC50: 1.39 µM (active)
Fatty acid synthase [14]
  IC50: 3.15 µM (active)
HeLa
  CC50: > 3.67 µM (not active)

## Nc1nccc2nc(-c3ccccc3)cn12
[15]
  Ki: 39.8 µM (active)
[16]
  Ki: 79.4 µM (active)
[17]
  Ki: 79.4 µM (active)
[18]
  Ki: 50.1 µM (active)
[19]
  Ki: 79.4 µM (active)
[20]
  Ki: 100 µM (active)
[21]
  Ki: 50.1 µM (active)
[22]
  Ki: 50.1 µM (active)
[23]
  Ki: 79.4 µM (active)
Activated CDC42 kinase 1
  Ki: 15.8 µM (active)
[24]
  Ki: 31.6 µM (active)

## Cc1cc(N2CCN(C(=O)Oc3ccc(-c4ccccc4)cc3)CC2)c2ccccc2n1
[25]
  IC50: 0.091 µM (active)

— ChEMBL document CHEMBL1201862, “PubChem BioAssay data set” (2004)
